# Measured values reported in patent US8952024B2, “Herbicidal pyrimidone derivatives” (E I du Pont de Nemours and Company, priority 2009, dated 2015).
# Columns and labels:
# Assay type in all cases: in vivo
# [1] = tested on: winter barley (Hordeum vulgare); assay: Test B postemergence plant response
# Method in brief: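 Plants at the 1- to 4-leaf stage (2 to 18 cm tall), grown in pots of peat moss/vermiculite medium with wetting agent and starter nutrients, received postemergence applications of test chemicals. After 13 to 15 days in a greenhouse, injury was rated visually against untreated controls on a 0 (no effect) to 100 (complete control) scale.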
# [2] = tested on: barnyardgrass (Echinochloa crus-galli); assay: Test B flooded paddy test; conditions: for Plant response rating, Flood, Barnyardgrass: 250 g ai/ha, flooded paddy test, visual rating on 0 to 100 scale (0 no effect, 100 complete control) after 13 to 15 days; for Plant response rating, Barnyardgrass: Flood (flooded paddy test), 13 to 15 days
# Method in brief: (§1)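 Greenhouse-held for 13 to 15 days, treated pots were compared visually with controls and scored 0–100 (0, no effect). Treatment had been made into paddy water kept at 3 cm above the soil, with plants at the 2-leaf stage.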
# rice (Oryza sativa) = assay: Test B flooded paddy test; conditions: for Plant response rating, Flood, Rice: 250 g ai/ha, flooded paddy test, visual rating on 0 to 100 scale (0 no effect, 100 complete control) after 13 to 15 days; for Plant response rating, Rice: Flood (flooded paddy test), 13 to 15 days
# Method in brief: as §1
# [3] = tested on: ducksalad (Heteranthera limosa); assay: Test B flooded paddy test; conditions: for Plant response rating, Flood, Ducksalad: 250 g ai/ha, flooded paddy test, visual rating on 0 to 100 scale (0 no effect, 100 complete control) after 13 to 15 days; for Plant response rating, Ducksalad: Flood (flooded paddy test), 13 to 15 days
# Method in brief: as §1
# [4] = tested on: umbrella sedge (Cyperus difformis); assay: Test B flooded paddy test; conditions: for Plant response rating, Flood, Sedge, Umbrella: 250 g ai/ha, flooded paddy test, visual rating on 0 to 100 scale (0 no effect, 100 complete control) after 13 to 15 days; for Plant response rating, Sedge, Umbrella: Flood (flooded paddy test), 13 to 15 days
# Method in brief: as §1
# [5] = tested on: pigweed (Amaranthus retroflexus); assay: Test A pre-/postemergence plant response
# Method in brief: (§2)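 Seeds planted in loam soil/sand blend; test chemicals in non-phytotoxic solvent mixture with surfactant applied as directed soil spray preemergence and, concurrently, postemergence to plants 2–10 cm tall at one- to two-leaf stage. Greenhouse ~10 days; visual injury vs untreated controls, 0 (no effect) to 100 (complete control).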
# [6] = tested on: giant foxtail (Setaria faberii); assay: Test A pre-/postemergence plant response
# Method in brief: as §2
# [7] = tested on: barnyardgrass (Echinochloa crus-galli); assay: Test A pre-/postemergence plant response
# Method in brief: as §2
# [8] = tested on: large crabgrass (Digitaria sanguinalis); assay: Test A pre-/postemergence plant response
# Method in brief: as §2
# corn (Zea mays) = assay: Test A pre-/postemergence plant response
# Method in brief: as §2
# [9] = tested on: velvetleaf (Abutilon theophrasti); assay: Test A pre-/postemergence plant response
# Method in brief: as §2
# [10] = tested on: morningglory (Ipomoea spp.); assay: Test A pre-/postemergence plant response
# Method in brief: as §2
# [11] = tested on: wheat (Triticum aestivum); assay: Test A pre-/postemergence plant response
# Method in brief: as §2
# [12] = Postemergence, 125 g ai/ha, scale 0 to 100 (0 no effect, 100 complete control)
# [13] = 62 g ai/ha, scale of 0 to 100 where 0 is no effect and 100 is complete control
# [14] = Postemergence, 125 g ai/ha, 0 to 100 scale where 0 is no effect and 100 is complete control
# [15] = Postemergence, 500 g ai/ha, 0 to 100 scale, 0 = no effect, 100 = complete control, approx. ten days
# [16] = Preemergence, 125 g ai/ha, 0 to 100 scale, 0 = no effect, 100 = complete control
# [17] = Preemergence, 500 g ai/ha, visual injury, 0 to 100 scale (0 no effect, 100 complete control), approx. ten days
# [18] = 125 g ai/ha, scale 0 to 100, 0 is no effect, 100 is complete control
# [19] = Flood, 31 g ai/ha, scale 0 to 100 (0 no effect, 100 complete control)
# [20] = Postemergence, 500 g ai/ha, visual injury, 0 to 100 scale (0 no effect, 100 complete control), approx. ten days
# [21] = Preemergence, 500 g ai/ha, 0 to 100 scale, 0 = no effect, 100 = complete control
compound,measurement,setting,value
COCCn1c(-c2cccc(C)c2)ncc(C(=O)C2=C(O)CCCC2=O)c1=O [Compound 117],"Plant response rating, Barley","[1]; 31 g ai/ha, postemergence, scale 0 to 100, 0 is no effect, 100 is complete control",0
same,Barley plant response rating (0 to 100 scale),"[1]; 62 g ai/ha, postemergence, 0 is no effect, 100 is complete control, 13 to 15 days",0
same,"Plant response rating, Barley",[1]; [12],0
same,"Plant response rating, Barley","[1]; Postemergence, 250 g ai/ha, scale 0 to 100 (0 no effect, 100 complete control)",0
same,"Plant response rating, Flood, Barnyardgrass",[2],75
same,"Plant response rating, Barnyardgrass",[2]; [13],65
same,"Plant response rating, Flood, Rice",rice (Oryza sativa),15
same,"Plant response rating, Rice",rice (Oryza sativa); [13],0
same,"Plant response rating, Flood, Ducksalad",[3],100
same,"Plant response rating, Flood, Sedge, Umbrella",[4],95
same,"Plant response rating, Sedge, Umbrella",[4]; [13],95
same,"Plant response rating, Pigweed",[5]; [14],100
same,"Plant response rating, Pigweed",[5]; [15],100
same,"Plant response rating, Pigweed",[5]; [16],90
same,"Plant response rating, Pigweed",[5]; [17],100
same,"Plant response rating, Foxtail, Giant",[6]; [14],70
same,"Plant response rating, Foxtail, Giant",[6]; [15],80
same,"Plant response rating, Foxtail, Giant",[6]; [16],20
same,"Plant response rating, Foxtail, Giant",[6]; [17],70
same,"Plant response rating, Barnyardgrass",[7]; [14],80
same,"Plant response rating, Barnyardgrass",[7]; [15],90
same,"Plant response rating, Barnyardgrass",[7]; [16],50
same,"Plant response rating, Barnyardgrass",[7]; [17],90
same,"Plant response rating, Crabgrass, Large",[8]; [14],80
same,"Plant response rating, Crabgrass, Large",[8]; [15],100
same,"Plant response rating, Crabgrass, Large",[8]; [16],60
same,"Plant response rating, Crabgrass, Large",[8]; [17],100
same,"Plant response rating, Corn",corn (Zea mays); [14],20
same,"Plant response rating, Corn",corn (Zea mays); [15],50
same,"Plant response rating, Corn",corn (Zea mays); [16],0
same,"Plant response rating, Corn",corn (Zea mays); [17],20
same,"Plant response rating, Velvetleaf",[9]; [14],100
same,"Plant response rating, Velvetleaf",[9]; [15],100
same,"Plant response rating, Velvetleaf",[9]; [16],70
same,"Plant response rating, Velvetleaf",[9]; [17],90
same,"Plant response rating, Morningglory",[10]; [14],100
same,"Plant response rating, Morningglory",[10]; [15],100
same,"Plant response rating, Morningglory",[10]; [16],40
same,"Plant response rating, Morningglory",[10]; [17],90
same,"Plant response rating, Wheat",[11]; [14],0
same,"Plant response rating, Wheat",[11]; [15],30
same,"Plant response rating, Wheat",[11]; [16],0
same,"Plant response rating, Wheat",[11]; [17],20
COCCn1c(-c2ccsc2)ncc(C(=O)C2=C(O)C3CCC(C3)C2=O)c1=O (centres unmarked) [Compound 228],"Plant response rating, Barley","[1]; Postemergence, 31 g ai/ha, 0 to 100 scale (0 no effect, 100 complete control)",0
same,"Plant response rating, Barley","[1]; Postemergence, 62 g ai/ha, scale 0 to 100 (0 no effect, 100 complete control)",5
same,"Plant response rating, Barley",[1]; [12],40
same,"Plant response rating, Barley","[1]; Postemergence, 250 g ai/ha, scale 0 to 100 (0 no effect, 100 complete control), 13 to 15 days",40
same,"Plant response rating, Flood, Barnyardgrass",[2],80
same,"Plant response rating, Barnyardgrass",[2]; [13],40
same,"Plant response rating, Barnyardgrass",[2]; [18],75
same,Barnyardgrass plant response rating,[2]; [19],15
same,"Plant response rating, Flood, Rice",rice (Oryza sativa),60
same,"Plant response rating, Rice",rice (Oryza sativa); [13],20
same,"Plant response rating, Rice",rice (Oryza sativa); [18],35
same,Rice plant response rating,rice (Oryza sativa); [19],0
same,"Plant response rating, Flood, Ducksalad",[3],80
same,"Plant response rating, Ducksalad",[3]; [13],50
same,"Plant response rating, Ducksalad",[3]; [18],75
same,Ducksalad plant response rating,[3]; [19],40
same,"Plant response rating, Flood, Sedge, Umbrella",[4],85
same,"Plant response rating, Sedge, Umbrella",[4]; [13],75
same,"Plant response rating, Sedge, Umbrella",[4]; [18],75
same,"Sedge, Umbrella plant response rating",[4]; [19],65
same,"Plant response rating, Pigweed",[5]; [14],100
same,Pigweed plant response rating,[5]; [20],100
same,"Plant response rating, Pigweed",[5]; [16],100
same,"Plant response rating, Pigweed",[5]; [21],100
same,"Plant response rating, Foxtail, Giant",[6]; [14],90
same,"Foxtail, Giant plant response rating",[6]; [20],90
same,"Plant response rating, Foxtail, Giant",[6]; [16],50
same,"Plant response rating, Foxtail, Giant",[6]; [21],90
same,"Plant response rating, Barnyardgrass",[7]; [14],90
same,Barnyardgrass plant response rating,[7]; [20],90
same,"Plant response rating, Barnyardgrass",[7]; [16],40
same,"Plant response rating, Barnyardgrass",[7]; [21],100
same,"Plant response rating, Crabgrass, Large",[8]; [14],90
same,"Crabgrass, Large plant response rating",[8]; [20],100
same,"Plant response rating, Crabgrass, Large",[8]; [16],100
same,"Plant response rating, Crabgrass, Large",[8]; [21],100
same,"Plant response rating, Corn",corn (Zea mays); [14],50
same,Corn plant response rating,corn (Zea mays); [20],90
same,"Plant response rating, Corn",corn (Zea mays); [16],0
same,"Plant response rating, Corn",corn (Zea mays); [21],50
same,"Plant response rating, Velvetleaf",[9]; [14],100
same,Velvetleaf plant response rating,[9]; [20],100
same,"Plant response rating, Velvetleaf",[9]; [16],100
same,"Plant response rating, Velvetleaf",[9]; [21],100
same,"Plant response rating, Morningglory",[10]; [14],100
same,Morningglory plant response rating,[10]; [20],100
same,"Plant response rating, Morningglory",[10]; [16],70
same,"Plant response rating, Morningglory",[10]; [21],80
same,"Plant response rating, Wheat",[11]; [14],0
same,Wheat plant response rating,[11]; [20],20
same,"Plant response rating, Wheat",[11]; [16],0
same,"Plant response rating, Wheat",[11]; [21],0
